{
  "source": "patent US12258389B2",
  "about": "“Methods and compositions for inhibition of EGF/EGFR pathway in combination with tyrosine kinase inhibitors” (In3Bio Ltd., priority 2015, dated 2025)",
  "key": {"p-ERK1/2 [1]": {"test_system": "p-ERK1/2", "test": "Western blot, phosphorylated ERK1/2, PC9-GR4 (T790M positive) cells", "format": "cell-based, human", "conditions": "AZD9291 0.2 μM, Ab1, Ctrl = 100", "from_the_text": "(§1) As described above, the PC9 cell line carries a 15 bp deletion in exon 19 of EGFR, making this cell line sensitive to TKI's. It represents a model for the EGFR Mutated segment of the NSCLC patient population receiving TKI treatment. As a part of this effort, PC9-derived cell lines resistant to TKIs were developed.\n(§2) In 5-day experiments, PC9 cells were not submitted to serum starvation but cultured with human serum."}, "pSTAT-3 [2]": {"test_system": "pSTAT-3", "test": "Western blot, phosphorylated STAT3 normalised to total STAT3, PC9 cells", "format": "cell-based, human", "procedure": "(§3) Experiment 1: In a typical standard experiment, five T-75 flasks of the cell line under study were cultured to approximately 70% confluence, washed twice with PBS and grown o/n in serum-free medium. The serum-starved cells were then washed again and treated as follows:\n(§4) Treatment was for about 15 minutes.\n(§5) Experiment 2: In a second experiment anti-EGF was tested only at 1 to 2 dilution. […] Treatment was prolonged to about 2 hours in this experiment.\n(§6) Both EGF and anti-EGF antibodies, which used in this project were derived from an immunization study in monkeys that received 4 immunizations of the rEGF-rP64k conjugate CIMAvax-EGF vaccine formulated with Montanide adjuvant. The vaccine and resulting anti-EGF antibodies were provided by Bioven (Europe) Ltd, Cruikshank Building North, Aberdeen Biotechnology, Craibstone Aberdeen, U.K. Scotland. Antibodies for Western blotting were purchased from Santa Cruz Biotechnologies (Palo Alto, CA).\n(§7) Experiment 3: In a third experiment anti-EGF was tested only at 1 to 2 dilution. […] Treatment was prolonged to about 2 hours in this experiment. […] Both EGF and anti-EGF were provided by Bioven. Antibodies for Western blotting were purchased from Santa Cruz Biotechnologies (Palo Alto, CA).\n(§8) Subsequently, three kind of experiments were performed:\n(§9) C. Non-Standard Conditions: In experiments “under non-standard conditions”, PC9 (4 flasks) cells were not submitted to serum starvation and activation with fetal bovine serum instead of human EGF was employed. They were washed with PBS (×2), drugs were added in medium containing 10% FBS and incubated for 2 hours."}, "PC9-GR1 and GR4": {"test_system": "PC9-GR1 and GR4", "test": "Sensitivity of T790M PC9-derived lines", "format": "cell-based, human", "from_the_text": "In the conduct of this study PC9-derived cell lines that are resistant to TKIs were utilized. […] They represent a model for the EGFR Mutated segment of the NSCLC patient population receiving first-line TKI treatment. […]. These two cell lines (PC9-GR1 and GR4) are sensitive to the new generation EGFR TKI developed by Astra Zeneca (AZD9291) that can also bind to the T790M EGFR mutated protein.\nas §1, with “developed. […] […]. These two cell lines (PC9-GR1 and GR4) are sensitive to the new generation EGFR TKI developed by Astra Zeneca (AZD9291) that can also bind to the T790M EGFR mutated protein.” for “developed.”"}, "pSTAT-3 [3]": {"test_system": "pSTAT-3", "test": "Western blot, phosphorylated STAT3, PC9-GR4 (T790M positive) cells", "format": "cell-based, human", "conditions": "AZD9291 0.2 μM, Ab1, Ctrl = 100", "from_the_text": "as §1, §2"}, "p-EGFR [4]": {"test_system": "p-EGFR", "test": "Western blot, phosphorylated EGFR, PC9-GR4 (T790M positive) cells", "format": "cell-based, human", "conditions": "AZD9291 0.2 μM, Ab1, Ctrl = 100", "from_the_text": "as §1, §2"}, "p-EGFR [5]": {"test_system": "p-EGFR", "test": "Western blot, phosphorylated EGFR normalised to total EGFR, PC9 cells", "format": "cell-based, human", "procedure": "as §3, §4, §5, §6, §7, §8\nC. […]"}, "p-Akt [6]": {"test_system": "p-Akt", "test": "Western blot, phosphorylated Akt, PC9-GR4 (T790M positive) cells", "format": "cell-based, human", "conditions": "AZD9291 0.2 μM, Ab1, Ctrl = 100", "from_the_text": "as §1, §2"}, "p-ERK1/2 [7]": {"test_system": "p-ERK1/2", "test": "Western blot, phosphorylated ERK1/2 normalised to total ERK1/2, PC9 cells", "format": "cell-based, human", "procedure": "as §3, §4, §5, §6, §7, §8, §9"}, "PC9 cells": {"test_system": "PC9 cells", "test": "Sensitivity of parental PC9 cells to TKIs", "format": "cell-based, human", "from_the_text": "(§10) In the conduct of this study PC9-derived cell lines that are resistant to TKIs were utilized. […] They represent a model for the EGFR Mutated segment of the NSCLC patient population receiving first-line TKI treatment.\nas §1"}, "p-Akt [8]": {"test_system": "p-Akt", "test": "Western blot, phosphorylated Akt normalised to total Akt, PC9 cells", "format": "cell-based, human", "procedure": "as §3, §4, §5, §6, §7, §8, §9"}, "PC9-ER and GR1 to GR5": {"test_system": "PC9-ER and GR1 to GR5", "test": "cells", "format": "cell-based", "conditions": "Homo sapiens, PC-9/ER; PC9-ER and GR1 to GR5 resistant lines", "from_the_text": "as §10, §1"}, "HES1": {"test_system": "HES1", "test": "Western blot, Hes1 level, PC9 cells", "format": "cell-based, human", "conditions": "PC9, 24 h, gefitinib 0.5 μM, Ab1; Ctrl = 100", "procedure": "as §2\n(§11) A preliminary analysis was performed to test some of them: Notch3 cleaved (active form of Notch3), phosphor-YAP, Bmi1 and Hes1 (related to stem cells) and AXL (related to EMT transition). Also, PARP was investigated to determine if the antibodies induce apoptosis. Extracts of the PC9 cell line obtained in previous experiments were used. […] A not-so-significant down-regulation of Bmi1 was also observed."}, "AXL": {"test_system": "AXL", "test": "Western blot, AXL, PC9 cells", "format": "cell-based, human", "conditions": "PC9, 24 h, gefitinib 0.5 μM, Ab1; Ctrl = 100", "procedure": "as §2, §11"}, "Notch3 truncated": {"test_system": "Notch3 truncated", "test": "Western blot, truncated (cleaved) Notch3, PC9 cells", "format": "cell-based, human", "conditions": "PC9, 24 h, gefitinib 0.5 μM, Ab1; Ctrl = 100", "procedure": "as §2, §11"}, "pYAP": {"test_system": "pYAP", "test": "Western blot, phospho-YAP, PC9 cells", "format": "cell-based, human", "conditions": "PC9, 24 h, gefitinib 0.5 μM, Ab1; Ctrl = 100", "procedure": "as §2, §11"}, "Bmi1": {"test_system": "Bmi1", "test": "Western blot, Bmi1 level, PC9 cells", "format": "cell-based, human", "conditions": "PC9, 24 h, gefitinib 0.5 μM, Ab1; Ctrl = 100", "procedure": "as §2, §11"}, "PARP": {"test_system": "PARP", "test": "Western blot, total PARP, PC9 cells", "format": "cell-based, human", "conditions": "PC9, 24 h, gefitinib 0.5 μM, Ab1; Ctrl = 100", "procedure": "as §2, §11"}, "PARP cleaved": {"test_system": "PARP cleaved", "test": "Western blot, cleaved (truncated) PARP, PC9 cells", "format": "cell-based, human", "conditions": "PC9, 24 h, gefitinib 0.5 μM, Ab1 (FIG. 21)", "procedure": "as §2, §11"}, "Notch3": {"test_system": "Notch3", "test": "Western blot, Notch3, PC9 cells", "format": "cell-based, human", "conditions": "PC9, 24 h, gefitinib 0.5 μM, Ab1; Ctrl = 100", "procedure": "as §2, §11"}, "[9]": {"conditions": "PC9, 2 h, AZD9291 0.2 μM, Ab1, Ctrl = 100"}, "[10]": {"conditions": "PC9, 0% FBS, EGF-induced, 2 h, erlotinib 1 μM, Ab 1/2 dilution, Control = 100"}, "[11]": {"conditions": "PC9, 2 h, erlotinib 1 μM, anti-EGF, nonstandard conditions and serum starvation (FIG. 13, 14)"}, "[12]": {"conditions": "PC9, 24 h serum starvation and drug treatment, gefitinib 0.5 μM, Ab 1/2, Control = 100"}, "[13]": {"conditions": "PC9, serum-starved, EGF, 15 min, gefitinib 40 nM, antibody 1/20 to 1/5 (FIG. 6)"}},
  "note": "Read-outs that look alike come from different tables or passages of the source.",
  "data": [
    {"compound": "C=CC(=O)Nc1cc(Nc2nccc(-c3cn(C)c4ccccc34)n2)c(OC)cc1N(C)CCN(C)C", "note": "[AZD9291]", "values": [
      {"measurement": "pErk ½", "setting": "p-ERK1/2 [1]; PC9-GR4, 2 h", "result": 53.6},
      {"measurement": "Erk ½", "setting": "p-ERK1/2 [1]; PC9-GR4, 24 h", "result": 20.5},
      {"measurement": "pSTAT3", "setting": "pSTAT-3 [2]; [9]", "result": 146.6},
      {"measurement": "sensitivity of cell lines", "setting": "PC9-GR1 and GR4", "result": "sensitive"},
      {"measurement": "pSTAT3", "setting": "pSTAT-3 [3]; PC9-GR4, 2 h", "result": 60},
      {"measurement": "STAT3", "setting": "pSTAT-3 [3]; PC9-GR4, 24 h", "result": 847.5},
      {"measurement": "pEGFR", "setting": "p-EGFR [4]; PC9-GR4, 2 h", "result": 2.5},
      {"measurement": "EGFR", "setting": "p-EGFR [4]; PC9-GR4, 24 h", "result": 138.6},
      {"measurement": "pEGFR", "setting": "p-EGFR [5]; [9]", "result": 76.3},
      {"measurement": "pAkt", "setting": "p-Akt [6]; PC9-GR4, 2 h", "result": 42.7},
      {"measurement": "Akt", "setting": "p-Akt [6]; PC9-GR4, 24 h", "result": 26.8},
      {"measurement": "pErk ½", "setting": "p-ERK1/2 [7]; [9]", "result": 3.7},
      {"measurement": "IC50", "setting": "PC9 cells", "result": "in the nM range"},
      {"measurement": "pAkt", "setting": "p-Akt [8]; [9]", "result": 2.9}
    ]},
    {"compound": "C#Cc1cccc(Nc2ncnc3cc(OCCOC)c(OCCOC)cc23)c1", "note": "[Erlotinib, N-(3-ethynylphenyl)-6,7-bis(2-methoxyethoxy)-4-quinazolinamine]", "values": [
      {"measurement": "STAT-3", "setting": "pSTAT-3 [2]; [10]", "result": 130},
      {"measurement": "effect on STAT3 activation", "setting": "pSTAT-3 [2]; [11]", "result": "activated"},
      {"measurement": "EGFR", "setting": "p-EGFR [5]; [10]", "result": 14.3},
      {"measurement": "ERK", "setting": "p-ERK1/2 [7]; [10]", "result": 0},
      {"measurement": "effect on Erk activation", "setting": "p-ERK1/2 [7]; [11]", "result": "inactivated"},
      {"measurement": "Akt", "setting": "p-Akt [8]; [10]", "result": 0},
      {"measurement": "IC50", "setting": "PC9-ER and GR1 to GR5", "result": "5 to 10", "unit": "µM"}
    ]},
    {"compound": "COc1cc2ncnc(Nc3ccc(F)c(Cl)c3)c2cc1OCCCN1CCOCC1", "note": "[Gefitinib]", "values": [
      {"measurement": "Hes1", "setting": "HES1", "result": 86.5},
      {"measurement": "AXL", "setting": "AXL", "result": 135.4},
      {"measurement": "Notch3 truncated", "setting": "Notch3 truncated", "result": 98.9},
      {"measurement": "p YAP (Ser 397)", "setting": "pYAP", "result": 137.6},
      {"measurement": "pSTAT3", "setting": "pSTAT-3 [2]; [12]", "result": 569.2},
      {"measurement": "effect on STAT-3 activation", "setting": "pSTAT-3 [2]; PC9, nonstandard conditions (not serum-starved, 10% FBS, no EGF), 2 h, gefitinib 0.5 μM, anti-EGF 1/2 (FIG. 8)", "result": "activated"},
      {"measurement": "effect on STAT3 activation", "setting": "pSTAT-3 [2]; PC9, serum starvation, EGF induction, 2 h, gefitinib 0.5 μM, anti-EGF 1/2 (FIG. 2, FIG. 9)", "result": "activated"},
      {"measurement": "effect on STAT3 phosphorylation", "setting": "pSTAT-3 [2]; [13]", "result": "activated"},
      {"measurement": "Bmi1", "setting": "Bmi1", "result": 100.1},
      {"measurement": "effect on Erk activation", "setting": "p-ERK1/2 [7]", "result": "inactivated"},
      {"measurement": "effect on Erk phosphorylation", "setting": "p-ERK1/2 [7]", "result": "inhibited"},
      {"measurement": "pERK", "setting": "p-ERK1/2 [7]", "result": 8.1},
      {"measurement": "PARP total", "setting": "PARP", "result": 110},
      {"measurement": "PARP cleavage", "setting": "PARP cleaved", "result": "able to induce it"},
      {"measurement": "pAkt", "setting": "p-Akt [8]; [12]", "result": 72.6},
      {"measurement": "effect on Akt phosphorylation", "setting": "p-Akt [8]; [13]", "result": "inhibited"},
      {"measurement": "Notch3", "setting": "Notch3", "result": 120.8}
    ]},
    {"compound": "COc1cc2c(Oc3ccc(NC(=O)C4(C(=O)Nc5ccc(F)cc5)CC4)cc3F)ccnc2cc1OCCCN1CCOCC1", "note": "[foretinib]", "values": [
      {"measurement": "IC50", "setting": "PC9 cells", "result": "in the nM range"}
    ]}
  ]
}
